From patent publication US20250230193A1, “CYCLIC COMPOUND HAVING SELECTIVE KRAS INHIBITORY EFFECT ON HRAS AND NRAS” (CHUGAI SEIYAKU KABUSHIKI KAISHA, priority 2022, published 2025)
*1 amine or outer side, *2 acyl side, *3 side chain or, on linkers, in order; H or OH if unused. Where a SMILES comes first, the peptide text is derived from it. Bridges are numbered along the chain shown (N, C = ends). [ ]: non-standard residue; d: D form. The star is where a group is joined. hPhe(3-Cl-4-CF3) = N[C@@H](CCc1ccc(C(F)(F)F)c(Cl)c1)C(=O)O; NPrPhe(4-CF3) = CCCN[C@@H](Cc1ccc(C(F)(F)F)cc1)C(=O)O; NMeGly(cPent) = CN[C@H](C(=O)O)C1CCCC1; X46 = CC1(C)CN([*:1])[C@@H]1C(=O)[*:2]; NMeD = CN[C@@H](CC(=O)O)C(=O)O; NMeL = CN[C@@H](CC(C)C)C(=O)O; Morpholide = C1CN(*)CCO1; Ac5c = NC1(C(=O)O)CCCC1; Aze = O=C(O)[C@@H]1CCN1; Sar = CNCC(=O)O

What was measured:
[1] = target: GDP-bound NRAS wild-type protein (Homo sapiens, UniProt P01111); experiment: Binding to NRAS by surface plasmon resonance (SPR), Single Cycle Kinetics; conditions: SPR; for NRAS/KRAS (ratio of KD value with respect to NRAS to KD value with respect to KRAS): GDP-bound NRAS wild-type vs GDP-bound KRAS wild-type
[2] = target: GDP-bound HRAS wild-type protein (Homo sapiens, UniProt P01112); experiment: Binding to HRAS by surface plasmon resonance (SPR), Single Cycle Kinetics; conditions: SPR; for HRAS/KRAS (ratio of KD value with respect to HRAS to KD value with respect to KRAS): GDP-bound HRAS wild-type vs GDP-bound KRAS wild-type
GDP-bound HRAS wild-type protein, sequence (P01112 whole entry): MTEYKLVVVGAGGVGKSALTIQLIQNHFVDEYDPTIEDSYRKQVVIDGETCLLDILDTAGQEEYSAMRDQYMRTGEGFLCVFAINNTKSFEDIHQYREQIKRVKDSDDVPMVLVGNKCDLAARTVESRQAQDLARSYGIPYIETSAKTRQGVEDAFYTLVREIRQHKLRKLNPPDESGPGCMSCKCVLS

GDP-bound NRAS wild-type protein, sequence (P01111 whole entry): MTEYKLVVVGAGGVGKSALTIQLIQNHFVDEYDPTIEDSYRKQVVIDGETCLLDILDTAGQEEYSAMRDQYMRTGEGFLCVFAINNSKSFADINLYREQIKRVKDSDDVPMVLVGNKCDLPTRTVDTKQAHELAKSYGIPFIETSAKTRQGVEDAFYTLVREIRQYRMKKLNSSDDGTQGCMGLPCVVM

CCCN1C(=O)[C@H](C2CCCC2)N(C)C(=O)C2(CCC2)NC(=O)[C@@H]2C[C@@H](OCC)CN2C(=O)[C@H](CCc2cc(F)c(C(F)(F)F)c(F)c2)NC(=O)CN(C)C(=O)[C@H](Cc2ccc(C(F)(F)F)cc2)N2CCCC[C@@H](C2=O)N(C)C(=O)CN(C)C(=O)[C@H]([C@@H](C)CC)NC(=O)[C@H](CC)N(C)C(=O)C[C@H]1C(=O)N(C)C [PP0644]
NRAS/KRAS (ratio of KD value with respect to GDP-bound NRAS wild-type protein to KD value with respect to KRAS) ([1]; KD ratio NRAS/KRAS): C (A compound having a KD ratio of 0.1 or more and less than 3 is denoted as C)
HRAS/KRAS (ratio of KD value with respect to GDP-bound HRAS wild-type protein to KD value with respect to KRAS) ([2]; KD ratio HRAS/KRAS): B (a compound having 3 or more and less than 10 is denoted as B)

CCCOC[C@H]1C(=O)N[C@@H]([C@@H](C)CC)C(=O)N(C)CC(=O)N(C)[C@H]2C/C=C\CCN(C2=O)[C@@H](Cc2ccc(C)cc2)C(=O)N(C)CC(=O)N[C@@H](CCc2ccc(C(F)(F)F)c(OC)c2)C(=O)N2C[C@H](OCC)C[C@H]2C(=O)NC2(CC(C)(C)C2)C(=O)N(C)[C@@H](C2CCCC2)C(=O)N(C)[C@H](C(=O)N(C)CC)CC(=O)N1C [PP2463]
NRAS/KRAS (ratio of KD value with respect to NRAS to KD value with respect to KRAS) [1]: A (a compound having 10 or more and less than 20 is denoted as A)
HRAS/KRAS (ratio of KD value with respect to HRAS to KD value with respect to KRAS) [2]: A (a compound having 10 or more and less than 20 is denoted as A)

CCCN1C(=O)CN(C)C(=O)[C@H]2N(CC2(C)C)C(=O)[C@H]([C@@H](C)CC)NC(=O)[C@H](CC(C)C)N(C)C(=O)C[C@@H](C(=O)N2CCOCC2)N(C)C(=O)[C@H](C2CCCC2)N(C)C(=O)C2(CCCC2)NC(=O)[C@@H]2CCCN2C(=O)[C@H](CCc2ccc(C(F)(F)F)c(Cl)c2)NC(=O)CN(C)C(=O)[C@@H]1Cc1ccc(C(F)(F)F)cc1 [PP0256] ([NMeL]I[X46][Sar][NPrPhe(4-CF3)][Sar][hPhe(3-Cl-4-CF3)]P[Ac5c][NMeGly(cPent)][NMeD]-Morpholide; lactam N-11)
NRAS/KRAS (ratio of KD for GDP-bound NRAS wild-type to KD for KRAS) ([1]; KD ratio NRAS/KRAS): B (a compound having 3 or more and less than 10 is denoted as B)
HRAS/KRAS (ratio of KD for GDP-bound HRAS wild-type to KD for KRAS) ([2]; KD ratio HRAS/KRAS): C (A compound having a KD ratio of 0.1 or more and less than 3 is denoted as C)

CC[C@H](C)[C@@H]1NC(=O)[C@H](CC(C)C)N(C)C(=O)C[C@@H](C(=O)N2CCOCC2)N(C)C(=O)[C@H](C2CCCC2)N(C)C(=O)C2(CC(F)(F)C2)NC(=O)[C@@H]2CCCN2C(=O)[C@H](CCc2cc(F)c(C(F)(F)F)c(F)c2)NC(=O)CN(C)C(=O)[C@H](Cc2ccc(C(F)(F)F)cc2)N2CCCC[C@@H](C2=O)N(C)C(=O)CN(C)C1=O [PP0562]
NRAS/KRAS (ratio of KD value with respect to GDP-bound NRAS wild-type protein to KD value with respect to KRAS) ([1]; KD ratio NRAS/KRAS): B (a compound having 3 or more and less than 10 is denoted as B)
HRAS/KRAS (ratio of KD value with respect to GDP-bound HRAS wild-type protein to KD value with respect to KRAS) ([2]; KD ratio HRAS/KRAS): B (a compound having 3 or more and less than 10 is denoted as B)

CCO[C@@H]1C[C@H]2C(=O)NC3(CC(C)(C)C3)C(=O)N(C)[C@@H](C(CC)CC)C(=O)N(C)[C@H](C(=O)N(C)C)CC(=O)N(C)[C@@H](CC3CCC3)C(=O)N[C@@H]([C@@H](C)CC)C(=O)N(C)CC(=O)N(C)[C@H]3C/C=C\CCN(C3=O)[C@@H](Cc3ccc(C)cc3)C(=O)N(C)CC(=O)N[C@@H](CCc3ccc(C(F)(F)F)c(Cl)c3)C(=O)N2C1 [PP2156]
NRAS/KRAS (ratio of KD value with respect to NRAS to KD value with respect to KRAS) [1]: AA (a compound having 20 or more is denoted as AA)
HRAS/KRAS (ratio of KD value with respect to HRAS to KD value with respect to KRAS) [2]: A (a compound having 10 or more and less than 20 is denoted as A)

CCO[C@@H]1C[C@H]2C(=O)NC3(CCC3)C(=O)N(C)[C@@H](C(C)C)C(=O)N(C)[C@H](C(=O)N(C)C)CC(=O)N(C)[C@@H](CC)C(=O)N[C@@H]([C@@H](C)CC)C(=O)N(C)CC(=O)N(C)[C@H]3C/C=C\CCN(C3=O)[C@@H](Cc3ccc(C(F)(F)F)cc3)C(=O)N(C)CC(=O)N[C@@H](CCc3cc(F)c(C(F)(F)F)c(F)c3)C(=O)N2C1 [PP1088]
NRAS/KRAS (ratio of KD value with respect to NRAS to KD value with respect to KRAS) ([1]; KD ratio): A (a compound having 10 or more and less than 20 is denoted as A)
HRAS/KRAS (ratio of KD value with respect to HRAS to KD value with respect to KRAS) ([2]; KD ratio): A (a compound having 10 or more and less than 20 is denoted as A)

CCCN1C(=O)CN(C)C(=O)[C@@H]2CCN2C(=O)[C@H]([C@@H](C)CC)NC(=O)[C@H](CC(C)C)N(C)C(=O)C[C@@H](C(=O)N(C)C)N(C)C(=O)[C@H](C2CCCC2)N(C)C(=O)C2(CCCC2)NC(=O)[C@@H]2CCCN2C(=O)[C@H](CCc2ccc(C(F)(F)F)c(Cl)c2)NC(=O)CN(C)C(=O)[C@@H]1Cc1ccc(C(F)(F)F)cc1 [PP0429] ([NMeL]I[Aze][Sar][NPrPhe(4-CF3)][Sar][hPhe(3-Cl-4-CF3)]P[Ac5c][NMeGly(cPent)][NMeD]-NMe2; lactam N-11)
NRAS/KRAS (ratio of KD value with respect to GDP-bound NRAS wild-type protein to KD value with respect to KRAS) ([1]; KD ratio NRAS/KRAS): B (a compound having 3 or more and less than 10 is denoted as B)
HRAS/KRAS (ratio of KD value with respect to GDP-bound HRAS wild-type protein to KD value with respect to KRAS) ([2]; KD ratio HRAS/KRAS): C (A compound having a KD ratio of 0.1 or more and less than 3 is denoted as C)
